Measurements published in patent EP0009547A1, “Fluoramphenicol esters, chemotherapeutic preparations containing them and process for their preparation” (F. HOFFMANN-LA ROCHE & CO. Aktiengesellschaft, priority 1978, dated 1980).
Where a name gives a salt, the structure may show the parent alone. Read-outs that look alike come from different tables or passages of the source. Each block holds one compound with its values, some of them ahead of it.

Assays:
[1] = Metabolic stability; type: in vitro ADME; conditions: stated in contrast to Chloramphenicol
[2] = Water solubility (observation on the isolated product); type: physicochemical; conditions: in Wasser, result in words
[3] = tested on: Pseudomonas aeruginosa BA; assay: In vivo activity (mouse), infection with Pseudomonas aeruginosa BA; conditions: po; Maus, p.o., gegen Pseudomonas aeruginosa BA; hydrochloride form; read-out: In-vivo-Aktivität (Maus) (CD50 p.o.)
[4] = tested on: Streptococcos pyogenes; assay: In vivo activity (mouse), infection with Streptococcos pyogenes; conditions: po, Maus, p.o., gegen Streptococcos pyogenes, hydrochloride form, read-out: In-vivo-Aktivität (Maus) (CD50 p.o.)
[5] = Acute toxicity (mouse); conditions: in vivo, read-out: Akute Toxizität (Maus): LD50
[6] = Hydrolytic cleavage of the ester at physiological pH; type: physicochemical; conditions: bei physiologischem pH
[7] = tested on: Escherichia coli; assay: In vivo activity (mouse), infection with Escherichia coli; conditions: po; Maus, p.o., gegen Escherichia coli; hydrochloride form; read-out: In-vivo-Aktivität (Maus) (CD50 p.o.)
[8] = tested on: Salmonella typhimurium; assay: In vivo activity (mouse), infection with Salmonella typhimurium; conditions: Salmonella enterica, po; Maus, p.o., gegen Salmonella typhimurium; hydrochloride form; read-out: In-vivo-Aktivität (Maus) (CD50 p.o.)

Compound: O=C(N[C@H](CO)[C@H](O)c1ccc([N+](=O)[O-])cc1)C(F)F [Fluoramphenicol, D-threo-1-(p-Nitrophenyl)-2-difluor-Mez/3.5.1979 acetamino-l,3-propandiol]
- Metabolische Beständigkeit [1]: metabolisch beständig

Compound: NCC(=O)OC[C@@H](NC(=O)C(F)F)[C@H](O)c1ccc([N+](=O)[O-])cc1 [Fluoramphenicol-3-glycinester, Fluoramphenicol-3-(glycinester)-hydrochlorid]
- ED50 [3]: 47 mg/kg
- ED50 [4]: 27 mg/kg
- LD50 ([5]; po): > 5000 mg/kg
- LD50 ([5]; sc): 2000 to 4000 mg/kg
- Hydrolytische Spaltung [6]: sofort hydrolytisch zu wirksamem Fluoramphenicol gespalten
- ED50 [7]: 23 mg/kg
- ED50 [8]: 12 mg/kg

Second part, the compound after the results:

- Wasserlöslichkeit [2]: sehr gut wasserlösliches
Compound: C[C@H](N)C(=O)OC[C@@H](NC(=O)C(F)F)[C@H](O)c1ccc([N+](=O)[O-])cc1 [Fluoramphenicol-3-(L-alaninester)-hydrochlorid]

- Wasserlöslichkeit [2]: sehr gut wasserlösliches
Compound: O=C(O)CCC(=O)OC[C@@H](NC(=O)C(F)F)[C@H](O)c1ccc([N+](=O)[O-])cc1 [Fluoramphenicol-3-monosuccinat-natriumsalz]

- Wasserlöslichkeit [2]: in Wasser praktisch unlösliche
Compound: CCCCCCCCCCCCCCCC(=O)OC[C@@H](NC(=O)C(F)F)[C@H](O)c1ccc([N+](=O)[O-])cc1 [Fluoramphenicol-3-palmitat]
